Source: patent US9056056B2, “Processing for dispersing amino acids” (N.V. Nutricia, priority 2007, dated 2015)

What was measured:
[1] = according to Eisenburg et al., Faraday Symp. Chem. Soc. 17:109-120 (1982); cited from earlier work
[2] = Wettability (wetting time), method of International IDF Standard 87:1979; type: physicochemical; details: for wetting time: amino acid not coated; for effect of coating on the wetting time: FIG. 1, coated versus uncoated amino acid
Excerpt: The wettability (wetting time) can be determined using the method of International IDF Standard 87:1979.

wetting time [2] | effect of coating on the wetting time [2] | SMILES | Hydrophobicity of amino acids (side chain hydrophobicity, SCH) [1]
short wetting time |  | NCC(=O)O [Gly, glycine] | +0.67 kJ/mol
 |  | CC(C)[C@H](N)C(=O)O [Val, valine] | +2.3 kJ/mol
 |  | N[C@@H](CS)C(=O)O [Cys, cysteine] | +0.17 kJ/mol
 |  | C[C@@H](O)[C@H](N)C(=O)O [Thr, threonine] | -0.179 kcal/mol
 |  | N[C@@H](Cc1c[nH]c2ccccc12)C(=O)O [Trp, tryptophan] | +1.5 kJ/mol
short wetting time | no or only a minor effect | C[C@H](N)C(=O)O [Ala] | +1.0 kJ/mol
 |  | NC(=O)C[C@H](N)C(=O)O [Asn] | -0.645 kcal/mol
 |  | NCCCC[C@H](N)C(=O)O [Lys, lysine] | -1.1 kcal/mol
 |  | O=C(O)[C@@H]1CCCN1 [Pro] | -0.0693 kcal/mol
 |  | N[C@@H](Cc1c[nH]cn1)C(=O)O [His] | -0.406 kcal/mol
 |  | N[C@@H](Cc1ccccc1)C(=O)O [Phe, phenylalanine] | +2.5 kJ/mol
 |  | N[C@@H](CC(=O)O)C(=O)O [Asp] | -0.717 kcal/mol
 |  | CSCC[C@H](N)C(=O)O [Met, methionine] | +1.1 kJ/mol
 |  | N=C(N)NCCC[C@H](N)C(=O)O [Arg] | -1.79 kcal/mol
 |  | N[C@@H](CO)C(=O)O [Ser] | -0.263 kcal/mol
 |  | N[C@@H](CCC(=O)O)C(=O)O [Glu] | -0.621 kcal/mol
 |  | CC[C@H](C)[C@H](N)C(=O)O [Ile, isoleucine] | +3.1 kJ/mol
short wetting time | no or only a minor effect | N[C@@H](Cc1ccc(O)cc1)C(=O)O [Tyr] | +0.08 kJ/mol
